In ChEMBL document CHEMBL1201862, “PubChem BioAssay data set” (2004):
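Briefly, cells in 96-well plates were exposed to five compound concentrations for 48 h, and endpoints were estimated by linear interpolation. Here, GI50 denotes the concentration required for 50% inhibition of growth.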 The source made the active and inactive calls. No stated cut-off is given here; in the data, active = GI50 up to about 1.1 µM and inactive = higher.

How the values were obtained:
Assay in all cases: inhibition of tumour cell growth, NCI panel, 48 h
[1] = tested on: OVCAR-8
[2] = tested on: SW-620
[3] = tested on: DU-145
[4] = tested on: ACHN
[5] = tested on: NCI-H460
[6] = tested on: SF-295
[7] = tested on: IGROV-1
[8] = tested on: SNB-75
[9] = tested on: RXF 393
[10] = tested on: SN12C
[11] = tested on: M14
[12] = tested on: UACC-257
[13] = tested on: HT-29
[14] = tested on: OVCAR-4
[15] = tested on: CAKI-1
[16] = tested on: A549
[17] = tested on: SNB-19
[18] = tested on: HCT-116
[19] = tested on: HL-60
[20] = tested on: HOP-92

SMILES	GI50 [1]	GI50 [2]	GI50 [3]	GI50 [4]	GI50 [5]	GI50 [6]	GI50 [7]	GI50 [8]	GI50 [9]	GI50 [10]	GI50 [11]	GI50 [12]	GI50 [13]	GI50 [14]	GI50 [15]	GI50 [16]	GI50 [17]	GI50 [18]	GI50 [19]	GI50 [20]
O=C(/C=C1\Nc2ccc([N+](=O)[O-])cc2N=C1NC12CC3CC(CC(C3)C1)C2)c1ccccc1	9.64 µM (inactive)	> 10 µM (inactive)	> 10 µM (inactive)	> 10 µM (inactive)	> 10 µM (inactive)	> 10 µM (inactive)	> 10 µM (inactive)	> 10 µM (inactive)	6.53 µM (inactive)	> 10 µM (inactive)	> 10 µM (inactive)	> 10 µM (inactive)	> 10 µM (inactive)	3.96 µM (inactive)	> 10 µM (inactive)					
Nn1c(=S)[nH]nc(/C=C/c2c(O)ccc3ccccc23)c1=O	1.78 µM (inactive)	4.74 µM (inactive)	12.1 µM (inactive)	4.93 µM (inactive)	4.58 µM (inactive)	8.85 µM (inactive)	1.64 µM (inactive)				5.71 µM (inactive)	5.3 µM (inactive)	4.03 µM (inactive)	4.06 µM (inactive)	5.55 µM (inactive)	6.78 µM (inactive)	21.8 µM (inactive)	3.32 µM (inactive)	0.203 µM (active)	
Cc1cc(=O)n(-c2c(C)cccc2Cl)c(/C=C(\O)c2ccncc2)n1	> 100 µM (inactive)	> 100 µM (inactive)		> 100 µM (inactive)	> 100 µM (inactive)	> 100 µM (inactive)	> 100 µM (inactive)	29.4 µM (inactive)	> 100 µM (inactive)	> 100 µM (inactive)	> 100 µM (inactive)	> 100 µM (inactive)	> 100 µM (inactive)	> 100 µM (inactive)	> 100 µM (inactive)	> 100 µM (inactive)	> 100 µM (inactive)	> 100 µM (inactive)	6.21 µM (inactive)	62.1 µM (inactive)
CC1CC/C(=C\c2ccc(F)cc2)C2=C1C(c1ccc(F)cc1)NC(=S)N2 (centres undefined)	86.7 µM (inactive)	80.4 µM (inactive)	46.8 µM (inactive)	54.3 µM (inactive)	20.4 µM (inactive)	54.7 µM (inactive)	43.5 µM (inactive)		25.2 µM (inactive)	97.7 µM (inactive)	50.9 µM (inactive)	43.2 µM (inactive)	29 µM (inactive)		57.8 µM (inactive)		> 100 µM (inactive)	32.9 µM (inactive)	38.5 µM (inactive)	
CC1=C(NC(=O)C(=O)NNC(=O)c2ccncc2)C(=O)c2ccccc2C1=O	18.4 µM (inactive)	15.7 µM (inactive)		16.1 µM (inactive)	4.44 µM (inactive)	10.8 µM (inactive)	12.7 µM (inactive)	17.4 µM (inactive)	15.4 µM (inactive)	11.8 µM (inactive)	9.84 µM (inactive)	9.77 µM (inactive)	15.5 µM (inactive)	13.8 µM (inactive)	22.8 µM (inactive)	13.6 µM (inactive)	17.5 µM (inactive)	11.4 µM (inactive)	10.8 µM (inactive)	15.5 µM (inactive)
[N-]=[N+]=C1C(=O)C2CC3CC(C2)CC1C3	> 100 µM (inactive)	64 µM (inactive)		> 100 µM (inactive)	> 100 µM (inactive)	> 100 µM (inactive)	> 100 µM (inactive)	> 100 µM (inactive)	> 100 µM (inactive)	> 100 µM (inactive)	> 100 µM (inactive)	> 100 µM (inactive)	> 100 µM (inactive)	> 100 µM (inactive)	> 100 µM (inactive)	> 100 µM (inactive)	> 100 µM (inactive)	> 100 µM (inactive)	> 100 µM (inactive)	> 100 µM (inactive)
CC(=O)NC(Cc1ccc(OP(=O)(OCc2ccc([N+](=O)[O-])o2)N(C)CCCCCl)cc1)C(=O)NC(C)c1ccc(OCC2CCCCC2)c(C(N)=O)c1 (centres undefined)	7.48 µM (inactive)	4.11 µM (inactive)	3.74 µM (inactive)	8.15 µM (inactive)	3.44 µM (inactive)	4.74 µM (inactive)	2.7 µM (inactive)		2.02 µM (inactive)	2.34 µM (inactive)	2.22 µM (inactive)	1.93 µM (inactive)	2.25 µM (inactive)	3.66 µM (inactive)	21.3 µM (inactive)	4.12 µM (inactive)	3.9 µM (inactive)	2.36 µM (inactive)	2.79 µM (inactive)	
COc1ccc(C(=O)/C=C/c2ccc(OCCSCCCCCCCCCCSCCOc3ccc(/C=C/C(=O)c4ccc(OC)c(OC)c4)cc3)cc2)cc1OC	> 100 µM (inactive)	> 100 µM (inactive)	> 100 µM (inactive)	> 100 µM (inactive)	> 100 µM (inactive)	> 100 µM (inactive)	> 100 µM (inactive)	> 100 µM (inactive)		> 100 µM (inactive)	> 100 µM (inactive)	> 100 µM (inactive)	> 100 µM (inactive)		> 100 µM (inactive)	> 100 µM (inactive)		> 100 µM (inactive)	> 100 µM (inactive)	
CC(C)=CCC/C(C)=C/Cc1c2c(c3oc(-c4ccc(O)c(O)c4)c(O)c(=O)c3c1O)C=CC(C)(C)O2	2.05 µM (inactive)		2.24 µM (inactive)	2.22 µM (inactive)	3.37 µM (inactive)	5.62 µM (inactive)	2.11 µM (inactive)	5.22 µM (inactive)	7.71 µM (inactive)	5.98 µM (inactive)	2.8 µM (inactive)	5.22 µM (inactive)	2.71 µM (inactive)	2.25 µM (inactive)	1.78 µM (inactive)	3.87 µM (inactive)	5.85 µM (inactive)	2.57 µM (inactive)	1.68 µM (inactive)	
CC1=C2C(=CC(C)(CO)C2O)C(=O)C(C)(O)C12CC2 (centres undefined)	0.00286 µM (active)	0.00142 µM (active)		0.00152 µM (active)	0.000668 µM (active)	0.00115 µM (active)	0.00721 µM (active)	0.00395 µM (active)	0.00163 µM (active)	0.00705 µM (active)	0.00327 µM (active)	0.00249 µM (active)	0.00154 µM (active)	0.00243 µM (active)	0.00367 µM (active)	0.00254 µM (active)	0.00474 µM (active)	0.00123 µM (active)	0.00131 µM (active)	0.00255 µM (active)
Cc1c(C(=O)/C=C/c2ccc3c(c2)OCO3)[n+]([O-])c2ccccc2[n+]1[O-]	23.8 µM (inactive)	37.2 µM (inactive)		35.6 µM (inactive)	28.4 µM (inactive)	28.7 µM (inactive)	34.6 µM (inactive)	26.1 µM (inactive)	23 µM (inactive)	23 µM (inactive)	28.1 µM (inactive)	31 µM (inactive)	26.4 µM (inactive)	40.6 µM (inactive)	25.9 µM (inactive)	32.7 µM (inactive)	56 µM (inactive)	29.4 µM (inactive)	30.8 µM (inactive)	21.1 µM (inactive)
